Results as given in patent US6967205B1, “Compounds with antibacterial and antiparasitic properties” (New Pharma Research Sweden AB, priority 1999, dated 2005).
In brackets after ≈: the same amount, converted by molar mass.

Legend:
[1] = tested on: Staphylococcus (ATCC 6538); assay: M.I.C. by broth dilution method (NCCLS 1988), gram-positive bacteria; type: cell-based; details: ATCC6538, in vitro broth dilution, read-out: M.I.C. values Staph. (ATCC 6538)
Summary of the method: (§1)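 MIC values were obtained by broth dilution following NCCLS 1988 against gram-positive strains including Bacillus subtilus ATCC 6633, Streptococcus faecium and Staphylococcus ATCC 6538. Enrofloxacin served as reference. Compound stocks were 1 000 μg/ml in aqueous KOH or KOH/DMF.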

[2] = tested on: Bacillus cereus; assay: as above; type: cell-based; details: in vitro broth dilution
Summary of the method: as §1

[3] = tested on: Bacillus subtilus (ATCC 6633); assay: as above; type: cell-based; details: ATCC6633, in vitro broth dilution
Summary of the method: as §1

[4] = tested on: Staph. epidermidis (ATCC 12228); assay: as above; type: cell-based; details: Staphylococcus epidermidis, ATCC12228, in vitro broth dilution
Summary of the method: as §1

[5] = tested on: Staph. aureus (ATCC 29737); assay: as above; type: cell-based; details: Staphylococcus aureus, ATCC29737, in vitro broth dilution
Summary of the method: as §1

[6] = tested on: Streptococcus faecium; assay: as above; type: cell-based; details: Enterococcus faecium, in vitro broth dilution, read-out: M.I.C. values Streptoc. faecium
Summary of the method: as §1

[7] = tested on: Micrococcus Luteus (ATCC 9341); assay: as above; type: cell-based; details: ATCC9341, in vitro broth dilution, read-out: M.I.C. values Microc. Luteus
Summary of the method: as §1

[8] = tested on: gram-positive bacteria; assay: Antibacterial activity against gram-positive bacteria, overall comparison with enrofloxacin; type: cell-based; details: seven gram-positive strains of Table 6
Protocol: (§2) The antibacterial activity of the present compounds was investigated by in vitro evaluation of their M.I.C. (Minimum Inhibitory Concentration) values. The evaluation was conducted in complete accordance with the “Broth dilution method”, as outlined by the U.S. National Committee for Clinical Laboratory Standards “NCCLS 1988”.
(§3) Solutions of the present compounds were prepared by dissolving 0.01 g of a test compound in either 10% KOH (aq) or a 10% KOH/DMF mixture, after which sterile, distilled H2O was added up to a total volume of 10 ml, thereby yielding a test compound concentration of 1 000 μg/ml.
In this evaluation, the antibacterial activity of the present compounds and enrofloxacin as reference compound was tested against seven strains of gram-positive bacteria, namely Bacillus subtilus (ATCC 6633), Bacillus cereus, Streptococcus faecium, Micrococcus Luteus (ATCC 9341), Staph. aureus (ATCC 29737), Staph. epidermidis (ATCC 12228) and Staphylococcus (ATCC 6538).

[9] = tested on: M. gallisepticum; assay: M.I.C. against Mycoplasma in microtitre plates (Tanner and Wu); type: cell-based; details: Mycoplasmoides gallisepticum; in vitro, microtitre plates
Protocol: The M.I.C. values of the compounds JA 1, JA 3, JA 5, JA 12, JA 42 and JA 43 were determined in vitro against M. gallisepticum. Enrofloxacin, tylosin and oxytetracyclin were used as reference compounds. The tested compounds were all stored and applied as solutions in distilled water. The M.I.C. evaluation was performed in microtitre plates, and the methodology employed was basically that of Tanner and Wu (Avian Disease, 36:714-717 (1992)).

[10] = tested on: gram-negative bacteria (E. coli, KL. Pnemonia, Bordetella bronchiseptic, Salmonella typhi, Salmonella spp., Proteus spp., Pasterulla Duck, Pasterulla Camel); assay: M.I.C. by broth dilution method, gram-negative bacteria; type: cell-based; details: eleven gram-negative strains
Protocol: as §2, §3
In the same manner as above, the M.I.C. values of the present compounds JA 3, JA 5, JA 12, JA 42, JA 73 and enrofloxacin as reference compound were investigated also on gram-negative bacteria. The gram-negative bacteria used were E. coli (ATCC 25922), E. Coli (ATCC 8739), E. Coli (ATCC 10536), E. Coli Pathogenic, KL. Pnemonia (ATCC 10031), Bordetella bronchiseptic (ATCC 4617), Salmonella typhi, Salmonella spp., Proteus spp., Pasterulla Duck and Pasterulla Camel.

[11] = tested on: E. mitis, E. hagani, E. praecox, E. acervulina, E. maxima, E. necatrix, E. tenella and E. brunetti; assay: Prophylactic anticoccidial effect in chickens of Arbor Aker breed (8 Eimeria strains); type: in vivo; details: 100 ppm in feed from day 3, infected day 7
Protocol: JA 12, JA 39 and JA 42 was also evaluated in chickens of Arbor Aker breed. These trials were conducted by using basically the same test protocol as that used for the chickens of Habbared X breed, albeit with the following modifications:
• i) On day 3 after hatch, the tested groups of chickens received feed containing 100 ppm of JA 12, JA 39, JA 42 or Coxistac (60 ppm); • ii) On day 7 after hatch, the chickens were infected orally by oocysts containing a mixture of 8 mature sporulated strains, namely E. mitis, E. hagani, E. praecox, E. acervulina, E. maxima, E. necatrix, E. tenella and E. brunetti.

[12] = tested on: Eimeria acervulina, E. maxima, E. necatrix, E. tenella and E. brunetti; assay: Prophylactic anticoccidial activity in chickens of Habbared X breed (5 Eimeria strains); type: in vivo; details: for anticoccidial effect (in words): chickens of Habbared X breed, 100 ppm in feed; for Average number of Eimeria spp. oocysts/g faeces, day after hatch 14: day 14 after hatch; for Average number of Eimeria spp. oocysts/g faeces, day after hatch 14 / Average number of Eimeria spp. oocysts/g faeces, day after hatch 15 / Average number of Eimeria spp. oocysts/g faeces, day after hatch 16 / Average number of Eimeria spp. oocysts/g faeces, day after hatch 17 / Average number of Eimeria spp. oocysts/g faeces, day after hatch 18 / Average number of Eimeria spp. oocysts/g faeces, day after hatch 19 / Average number of Eimeria spp. oocysts/g faeces, day after hatch 21 / Mean body weight / Mean amount of feed consumed / Average number of Eimeria spp. oocysts/g faeces, Total: drug in feed (JA 39, JA 42 100 ppm; Coxistac 60 ppm); for Average number of Eimeria spp. oocysts/g faeces, day after hatch 14 / Average number of Eimeria spp. oocysts/g faeces, day after hatch 15 / Average number of Eimeria spp. oocysts/g faeces, day after hatch 16 / Average number of Eimeria spp. oocysts/g faeces, day after hatch 17 / Average number of Eimeria spp. oocysts/g faeces, day after hatch 18 / Average number of Eimeria spp. oocysts/g faeces, day after hatch 19 / Average number of Eimeria spp. oocysts/g faeces, day after hatch 21: infected day 10; for Average number of Eimeria spp. oocysts/g faeces, day after hatch 15: day 15 after hatch; for Average number of Eimeria spp. oocysts/g faeces, day after hatch 16: day 16 after hatch; for Average number of Eimeria spp. oocysts/g faeces, day after hatch 17: day 17 after hatch; for Average number of Eimeria spp. oocysts/g faeces, day after hatch 18: day 18 after hatch; for Average number of Eimeria spp. oocysts/g faeces, day after hatch 19: day 19 after hatch; for Average number of Eimeria spp. oocysts/g faeces, day after hatch 21: day 21 after hatch; for Mean body weight: final weight; for Mean body weight / Mean amount of feed consumed: infected chickens; for Mean amount of feed consumed: mean total feed per bird; for Average number of Eimeria spp. oocysts/g faeces, Total: total of days 14-21 after hatch
Protocol: The anticoccidial activity of the present compounds as prophylactic agents was evaluated in vivo on […] one day old (1 day after hatch) chickens of Habbared X breed. The chickens were divided into four groups of 20 birds each, and each group was located in a separate pen (1 m×1 m). The chickens were then fed with unmedicated food up to day 7 after hatch. Fresh water was supplied ad libitum .
On day 8 after hatch, the four groups were fed as follows (1 ppm=1 mg drug/kg feed): • Group #1: feed containing JA 39 (100 ppm); • Group #2: feed containing JA 42 (100 ppm); • Group #3: feed containing Coxistac (60 ppm), a known anticoccidial agent (see U.S. Pat. No. 3,857,948);
Group #4: feed containing no drug (control group).
The chickens were fed as above on day 8 and 9 after hatch. On day 10 after hatch, each chicken was infected orally by 6 000-7 000 oocysts containing a mixture of 5 mature sporulated strains, namely Eimeria acervulina, E. maxima, E. necatrix, E. tenella and E. brunetti. The groups #1-3 received drug as above from day 10 to 21 after hatch.
From day 14 to 21 after hatch, fresh fecal droplets were collected and examined daily. The average number of oocysts/g faeces was then calculated in accordance with the so-called Mc-Master technique (Soulsby, E. J., Helminths, Arthropods & Protozoa of domesticated animals, p. 789, 6th Ed., Williams & Wilkins Co. Baltimore (USA), Tindall & Cassell Ltd., London, 1968). The final weight of and mean total amount of feed consumed by each bird were also examined, and the results are summarized in Table 8 hereinbelow.

Row | SMILES | MIC [1] [µg/mL] | MIC [2] [µg/mL] | MIC [3] [µg/mL] | MIC [4] [µg/mL] | MIC [5] [µg/mL] | MIC [6] [µg/mL] | MIC [7] [µg/mL] | antibacterial activity against gram-positive bacteria compared to that of enrofloxacin [8] | MIC [9] [µg/mL] | antibacterial activity against gram-negative bacteria compared to that of enrofloxacin [10] | prophylactic anticoccidial effect (in words) [11] | anticoccidial effect (in words) [12] | Average number of Eimeria spp. oocysts/g faeces, day after hatch 14 [12] [oocysts/g faeces] | Average number of Eimeria spp. oocysts/g faeces, day after hatch 15 [12] [oocysts/g faeces] | Average number of Eimeria spp. oocysts/g faeces, day after hatch 16 [12] [oocysts/g faeces] | Average number of Eimeria spp. oocysts/g faeces, day after hatch 17 [12] [oocysts/g faeces] | Average number of Eimeria spp. oocysts/g faeces, day after hatch 18 [12] [oocysts/g faeces] | Average number of Eimeria spp. oocysts/g faeces, day after hatch 19 [12] [oocysts/g faeces] | Average number of Eimeria spp. oocysts/g faeces, day after hatch 21 [12] [oocysts/g faeces] | Mean body weight [12] [g] | also measured
1 | COc1ccc(S(=O)(=O)N2CCN(c3cc4c(cc3F)c(=O)c(C(=O)O)cn4C3CC3)CC2)cc1 [JA 4, 1-cyclopropyl-6-fluoro-7-{4-[(4-methoxyphenyl)sulfonyl]-1-piperazinyl}-4-oxo-1,4-dihydro-3-quinolinecarboxylic acid] | 0.01 (≈ 0.0199 µM) | 0.01 (≈ 0.0199 µM) | 0.01 (≈ 0.0199 µM) | 0.03 (≈ 0.0598 µM) | 0.06 (≈ 0.12 µM) | 0.06 (≈ 0.12 µM) | 0.25 (≈ 0.498 µM) | clearly superior | – | – | – | – | – | – | – | – | – | – | – | – | –
2 | O=C(O)c1cn(C2CC2)c2cc(N3CCN(S(=O)(=O)C(F)(F)F)CC3)c(F)cc2c1=O [JA 12, 1-cyclopropyl-6-fluoro-4-oxo-7-{4-[(trifluoromethyl)sulfonyl]-1-piperazinyl}-1,4-dihydro-3-quinolinecarboxylic acid] | 0.03 (≈ 0.0647 µM) | 0.06 (≈ 0.129 µM) | 0.12 (≈ 0.259 µM) | 0.12 (≈ 0.259 µM) | 0.12 (≈ 0.259 µM) | 1 (≈ 2.16 µM) | 0.5 (≈ 1.08 µM) | – | 0.12 (≈ 0.259 µM) | roughly equal to that of enrofloxacin | very similar to that of JA 39 | – | – | – | – | – | – | – | – | – | –
3 | O=C(O)c1cn(C2CC2)c2cc(N3CCN(c4cncc(Cl)n4)CC3)c(F)cc2c1=O [JA 39, 7-[4-(6-chloro-2-pyrazinyl)-1-piperazinyl]-1-cyclopropyl-6-fluoro-4-oxo-1,4-dihydro-3-quinolinecarboxylic acid] | 0.03 (≈ 0.0676 µM) | 0.01 (≈ 0.0225 µM) | 0.06 (≈ 0.135 µM) | 0.01 (≈ 0.0225 µM) | 0.12 (≈ 0.27 µM) | 0.25 (≈ 0.563 µM) | 1 (≈ 2.25 µM) | clearly superior | – | – | essentially the same as those reported for the trials with the chickens of Habbared X breed | excellent anticoccidial effect | 0.0 | 4000 | 5000 | 3000 | 0.0 | 0.0 | 0.0 | 68.2 | Mean amount of feed consumed [12]: 81 g; Average number of Eimeria spp. oocysts/g faeces, Total [12]: 12000 oocysts/g faeces
4 | O=C(O)c1cn(C2CC2)c2cc(N3CCN(c4cccc(Cl)n4)CC3)c(F)cc2c1=O [JA 42, 7-[4-(6-chloro-2-pyridinyl)-1-piperazinyl]-1-cyclopropyl-6-fluoro-4-oxo-1,4-dihydro-3-quinolinecarboxylic acid] | 0.06 (≈ 0.135 µM) | 0.06 (≈ 0.135 µM) | 0.01 (≈ 0.0226 µM) | 0.008 (≈ 0.0181 µM) | 0.03 (≈ 0.0677 µM) | 0.25 (≈ 0.564 µM) | 1 (≈ 2.26 µM) | – | 0.25 (≈ 0.564 µM) | roughly equal to that of enrofloxacin | essentially the same as those reported for the trials with the chickens of Habbared X breed | excellent anticoccidial effect | 0.0 | 4000 | 6000 | 3000 | 0.0 | 0.0 | 0.0 | 73.7 | Mean amount of feed consumed [12]: 91 g; Average number of Eimeria spp. oocysts/g faeces, Total [12]: 13000 oocysts/g faeces
